From patent publication US20100311714A1, “1H-IMIDAZO[4,5-c]QUINOLINONE COMPOUNDS” (priority 2009, published 2010)

Test system: PKB Ser473 phosphorylation in Rat1-myr-HA-p110 beta cells
Assay: Reverse protein array, PKB Ser473 phosphorylation in Rat1-myr-HA-p110 beta cells
Type: cell-based
Settings: Rattus norvegicus, 0.5 h, 30 minutes compound incubation, read-out: p-PKB/IC50_beta

## CCOc1ccc(-c2ccc3ncc4c(c3c2)n(-c2ccc(C)nc2C)c(=O)n4C)cn1 [Example 14.2, 1-(2,6-Dimethyl-pyridin-3-yl)-8-(6-ethoxy-pyridin-3-yl)-3-methyl-1,3-dihydro-imidazo[4,5-c]quinolin-2-one]
  IC50: 21.7 nM

## CCOCc1cc(-c2ccc3ncc4c(c3c2)n(-c2ccc(F)nc2C)c(=O)n4C)cnc1N [Example 7.15, 8-(6-Amino-5-ethoxymethyl-pyridin-3-yl)-1-(6-fluoro-2-methyl-pyridin-3-yl)-3-methyl-1,3-dihydro-imidazo[4,5-c]quinolin-2-one]
  IC50: 50.6 nM

## CCOc1ccc(-c2ccc3ncc4c(c3c2)n(-c2ccc(NC(=O)COC)nc2C)c(=O)n4C)cn1 [Example 20.2, N-{5-[8-(6-Ethoxy-pyridin-3-yl)-3-methyl-2-oxo-2,3-dihydro-imidazo[4,5-c]quinolin-1-yl]-6-methyl-pyridin-2-yl}-2-methoxy-acetamide]
  IC50: 210 nM

## CNc1ccc(-c2ccc3ncc4c(c3c2)n(-c2cccnc2OC)c(=O)n4C)cn1 [Example 1.4, 1-(2-Methoxy-pyridin-3-yl)-3-methyl-8-(6-methylamino-pyridin-3-yl)-1,3-dihydro-imidazo[4,5-c]quinolin-2-one]
  IC50: 9.81 nM

## CCNc1cc(-c2ccc3ncc4c(c3c2)n(-c2ccc(C)nc2C)c(=O)n4C)cnc1C [Example 14.6, 1-(2,6-Dimethyl-pyridin-3-yl)-8-(5-ethylamino-6-methyl-pyridin-3-yl)-3-methyl-1,3-dihydro-imidazo[4,5-c]quinolin-2-one]
  IC50: 8.1 nM

## CNc1ncc(-c2ccc3ncc4c(c3c2)n(-c2cnc(F)cc2C)c(=O)n4C)cn1 [Example 16.3, 1-(6-Fluoro-4-methyl-pyridin-3-yl)-3-methyl-8-(2-methylamino-pyrimidin-5-yl)-1,3-dihydro-imidazo[4,5-c]quinolin-2-one]
  IC50: 302 nM

## Cc1cccnc1-n1c(=O)n(C)c2cnc3ccc(-c4cnc5ccccc5c4)cc3c21 [Example 3.8, 3-Methyl-1-(3-methyl-pyridin-2-yl)-8-quinolin-3-yl-1,3-dihydro-imidazo[4,5-c]quinolin-2-one]
  IC50: 108 nM

## CNC(=O)c1cc(-c2ccc3ncc4c(c3c2)n(-c2ccc(F)nc2C)c(=O)n4C)cnc1N [Example 7.14, 2-Amino-5-[1-(6-fluoro-2-methyl-pyridin-3-yl)-3-methyl-2-oxo-2,3-dihydro-1H-imidazo[4,5-c]quinolin-8-yl]-N-methyl-nicotinamide]
  IC50: 50.6 nM

## COCCN(C)c1ccc(-n2c(=O)n(C)c3cnc4ccc(-c5cnc6c(ccn6C)c5)cc4c32)c(C)n1 [Example 15.7, 1-{6-[(2-Methoxy-ethyl)-methyl-amino]-2-methyl-pyridin-3-yl}-3-methyl-8-(1-methyl-1H-pyrrolo[2,3-b]pyridin-5-yl)-1,3-dihydro-imidazo[4,5-c]quinolin-2-one]
  IC50: 24.4 nM

## Cc1nc(N2CC(F)(F)C(F)(F)C2)ccc1-n1c(=O)n(C)c2cnc3ccc(-c4cncc(C(C)(C)O)c4)cc3c21 [Example 35.1, 8-[5-(1-Hydroxy-1-methyl-ethyl)-pyridin-3-yl]-3-methyl-1-[2-methyl-6-(3,3,4,4-tetrafluoro-pyrrolidin-1-yl)-pyridin-3-yl]-1,3-dihydro-imidazo[4,5-c]quinolin-2-one]
  IC50: 27.9 nM

## COc1cc(-c2ccc3ncc4c(c3c2)n(-c2ccc(N(C)C)nc2C)c(=O)n4C)cnc1CO [Example 19.4, 1-(6-Dimethylamino-2-methyl-pyridin-3-yl)-8-(6-hydroxymethyl-5-methoxy-pyridin-3-yl)-3-methyl-1,3-dihydro-imidazo[4,5-c]quinolin-2-one]
  IC50: 40.2 nM

## CCOc1ccc(-c2ccc3ncc4c(c3c2)n(-c2cncc(C)c2)c(=O)n4C)cn1 [Example 17.1, 8-(6-Ethoxy-pyridin-3-yl)-3-methyl-1-(5-methyl-pyridin-3-yl)-1,3-dihydro-imidazo[4,5-c]quinolin-2-one]
  IC50: 202 nM

## COCCN(C)c1ccc(-n2c(=O)n(C)c3cnc4ccc(-c5cnc(N)c(C(F)(F)F)c5)cc4c32)c(C)n1 [Example 15.1, 8-(6-Amino-5-trifluoromethyl-pyridin-3-yl)-1-{6-[(2-methoxy-ethyl)-methyl-amino]-2-methyl-pyridin-3-yl}-3-methyl-1,3-dihydro-imidazo[4,5-c]quinolin-2-one]
  IC50: 6.1 nM

## CNc1ncc(-c2ccc3ncc4c(c3c2)n(-c2ccc(C)nc2C)c(=O)n4C)cn1 [Example 14.4, 1-(2,6-Dimethyl-pyridin-3-yl)-3-methyl-8-(2-methylamino-pyrimidin-5-yl)-1,3-dihydro-imidazo[4,5-c]quinolin-2-one]
  IC50: 24.2 nM

## CCOc1cc(-c2ccc3ncc4c(c3c2)n(-c2cccnc2C)c(=O)n4C)cnc1C [Example 2.22, 8-(5-Ethoxy-6-methyl-pyridin-3-yl)-3-methyl-1-(2-methyl-pyridin-3-yl)-1,3-dihydro-imidazo[4,5-c]quinolin-2-one]
  IC50: 22.5 nM

## CCOc1ccc(-c2ccc3ncc4c(c3c2)n(-c2cccnc2OC)c(=O)n4C)cn1 [Example 1.5, 8-(6-Ethoxy-pyridin-3-yl)-1-(2-methoxy-pyridin-3-yl)-3-methyl-1,3-dihydro-imidazo[4,5-c]quinolin-2-one]
  IC50: 38.8 nM

## CNc1ncc(-c2ccc3ncc4c(c3c2)n(-c2ccc(NC(=O)COC)nc2C)c(=O)n4C)cn1 [Example 20.3, 2-Methoxy-N-{6-methyl-5-[3-methyl-8-(2-methylamino-pyrimidin-5-yl)-2-oxo-2,3-dihydro-imidazo[4,5-c]quinolin-1-yl]-pyridin-2-yl}-acetamide]
  IC50: 16.3 nM

## CCN(C)c1ccc(-n2c(=O)n(C)c3cnc4ccc(-c5ccc(NC)nc5)cc4c32)c(C)n1 [Example 12.1, 1-[6-(Ethyl-methyl-amino)-2-methyl-pyridin-3-yl]-3-methyl-8-(6-methylamino-pyridin-3-yl)-1,3-dihydro-imidazo[4,5-c]quinolin-2-one]
  IC50: < 4.57 nM

## Cc1ncccc1-n1c(=O)n(C)c2cnc3ccc(-c4cnc5c(ccn5C)c4)cc3c21 [Example 2.14, 3-Methyl-1-(2-methyl-pyridin-3-yl)-8-(1-methyl-1H-pyrrolo[2,3-b]pyridin-5-yl)-1,3-dihydro-imidazo[4,5-c]quinolin-2-one]
  IC50: 13.1 nM

## CCNc1cc(-c2ccc3ncc4c(c3c2)n(-c2ccc(N(C)CC)nc2C)c(=O)n4C)cnc1C [Example 12.2, 8-(5-Ethylamino-6-methyl-pyridin-3-yl)-1-[6-(ethyl-methyl-amino)-2-methyl-pyridin-3-yl]-3-methyl-1,3-dihydro-imidazo[4,5-c]quinolin-2-one]
  IC50: < 4.57 nM

## Cc1ccc(-n2c(=O)n(C)c3cnc4ccc(-c5cnc6c(ccn6C)c5)cc4c32)c(C)n1 [Example 14.7, 1-(2,6-Dimethyl-pyridin-3-yl)-3-methyl-8-(1-methyl-1H-pyrrolo[2,3-b]pyridin-5-yl)-1,3-dihydro-imidazo[4,5-c]quinolin-2-one]
  IC50: 20.8 nM
